Experimental data as given in patent US5681738A, “Use of 10-oxo-trans-8-decenoic acid in mushroom cultivation” (The Penn State Research Foundation, priority 1992, dated 1997).

Legend:
Solubility = format: physicochemical
[1] = test system: Agaricus bisporus mycelia; assay: Dry matter of mycelia grown in potato dextrose yeast broth at 25° C.; format: cell-based, Agaricus bisporus (hybrid off-white); details: Week 5, control 15.6 b
Procedure: The commercial mushroom spawn (hybrid off-white), Agaricus bisporus (Lange) Imbach, was obtained from Alpha Spawn Co., Avondale, Pa., and inoculated onto potato dextrose yeast (PDY) agar (Difco) and incubated at 25° C. A pure culture was obtained from the grain spawn grown on petri dishes and re-inoculated into PDY agar and maintained at 25° C. before use.
The mushroom culture was grown on PDY agar or in PDY broth, both containing 0.5% yeast extract. The broth was dispensed into flasks prior to autoclaving, 50 mL. per flask, while 5 mL of sterile ODA solutions were aseptically added into flasks before inoculation.
To prepare ODA solutions, about 18.4 mg (0.1 mmole) of 10-oxo-trans-8-decenoic acid prepared as described above were dissolved in i mL ethanol and diluted with deionized water to 100 mL to give a molar concentration of 10^-3 M, and then diluted in order to add 1.0 mL of the solutions to each flask to give the required final concentrations.
Sterile ODA solutions were aseptically added into the autoclaved agar medium to achieve the desired final ODA concentrations, and then the medium was dispensed into petri dishes, ca 30 ml per dish. The levels of ODA tested included 2×10^-4, 10^-4, 10^-5, 10^-6 and 10^-7 M for both PDY agar and broth. These flasks and dishes were inoculated with 1 mm mycelial plugs from 4-week old cultures and incubated statically at 25° C. for 5 weeks. Each week, ca 300 μL of broth was aseptically taken from the flasks for laccase assay, while the colony diameter of every petri dish was measured using a vernier caliper to calculate the linear growth of the culture.
After 5-weeks of incubation, the dry matter of mycelia was determined by vacuum filtering liquid cultures in PDY broth through weighed filter paper, and drying to constant weight at 70° C.
Methods for the estimation of total fungal growth include the measurement of dry matter, linear growth, carbon dioxide evolution, chitin, ATP as well as extracellular laccase activity (Cochrane, (1958); Wood, (1979)). In this research the linear growth rate was used to examine the growth of mushroom mycelia on agar plates, while the extracellular laccase activity and dry matter were determined to estimate the growth of mycelia in liquid cultures. Extracellular laccases (p-diphenol: oxygen oxidoreductase, EC 1.10.3.2) produced by various classes of fungi are reported to be involved in biotransformation of lignin and lignosulfonate (Anders et al., (1976)), as well as in the breakdown of cellulose by cellulase (Westermark et al., (1974a); Westermark et al., (1974b); Haars et al., (1980)). Although the role of laccase in growth and development of Agaricus bisporus is not well defined, it has been observed that laccase production correlated with mycelial biomass of this fungus (Wood, (1979); Matcham et al., (1985); Claydon et al., (1988)).

[2] = test system: separated stipes of Agaricus bisporus; assay: Elongation of upper stipes of separated stipes (upper and lower portions) on test agar containing ODA, 3-day storage at 12° C.; design: species or system Agaricus bisporus (hybrid off-white); details: for % Elongation of upper stipes, Mean: control 14.4
Procedure: Four type strains of mushrooms were used: the white, off-white, hybrid white (U3) and hybrid off-white (U1). Mushrooms from each flush were harvested before the veil was broken. Freshly harvested mushrooms were transported within about one hour after harvest to Borland Laboratory and placed in the pilot plant cold room (4° C.) for about two hours before sampling. Mushrooms were sorted on the basis of size and appearance. Diseased, damaged, misshapen, veil-opened and extremely large or small mushrooms (>40 or <25 mm in cap diameter) were discarded. Mushrooms of uniform size (25-40 mm) and maturity of the button stage (stage 1, veil intact tightly) were used in this research.
Whole stipes were cut at the lower portions to a length of 7-9 mm to standardize the sample, and marked at the middle of the veil, which is the location where the veil attaches to the stipe, to indicate the upper and lower stipes. The separated stipes contained 2-4 mm of upper stipes and 5-6 nun of lower stipes. For the study using separated upper stipes, mushrooms were dissected directly into upper stipes with a length of 3-5 mm. The separated stipes or upper stipes were put upside down on the test agar containing various mushroom supernatants or ODA concentrations; i.e., the upper sides in contact with the agar surface (FIG. 12). All petri dishes were covered and stored at 12° C. The length of separated stipes and upper stipes was measured using a vernier caliper before and after certain days of storage.
Sterile ODA solutions were aseptically added into the autoclaved agar solutions to achieve the desired final ODA concentrations. The agar solution was then dispensed into dishes, ca 20.8 mL per dish. The level of ODA tested included 10^-4, 10^-5, 10^-6, 10^-7, and 10^-8 M. Mushrooms (hybrid off-white) from 6 different crops were used to study their postharvest growth. In the first 2 experiments, mushroom stipes were measured after 4-day storage at 12° C. In order to prevent stipe deterioration and desiccation of the test agar, in the following experiments mushroom stipes were measured after 3-day storage at 12° C.
The experimental data were subjected to a single classification analysis of variance (AOV) for a completely randomized design (Steele et al., 1980). Fisher's protected least significant difference (LSD) was applied to separate the means. The level of significance used in this research was 0.05.
ODA stimulated the elongation of upper stipes in excess of the control, but the response occurred only when the lower portions were present. The additional elongation of upper stipes was stimulated by ODA at a concentration as low as 10^-8 M (0.00184 ppm).

Compound: O=C/C=C/CCCCCCC(=O)O [ODA, 10-oxo-trans-8-decenoic acid]
- solubility (Solubility; acetone, chloroform, ethanol, ethyl ether, methanol, methylene chloride and water): soluble
- solubility (Solubility; non-polar solvents such as pentane, hexane, heptane and benzene): slightly soluble
- Dry matter ([1]; ODA 2 × 10^-4 M (36.8 ppm)): 16.7 mg
- Dry matter ([1]; ODA 10^-4 M (18.4 ppm)): 23.2 mg
- Dry matter ([1]; ODA 10^-5 M (1.84 ppm)): 48.5 mg
- Dry matter ([1]; ODA 10^-6 M (0.184 ppm)): 44.1 mg
- Dry matter ([1]; ODA 10^-7 M (0.0184 ppm)): 16.9 mg
- minimal effective concentration ([2]; Agaricus bisporus, 72 h, 0.00184 ppm, separated stipes with lower portions, read-out: lowest concentration stimulating additional elongation of upper stipes): 0.01 µM
- % Elongation of upper stipes, Mean ([2]; ODA 10^-4 M (18.4 ppm)): 30.0%
- % Elongation of upper stipes ([2]; ODA 10^-4 M (18.4 ppm), rep 1, control 14.5): 25.1%
- % Elongation of upper stipes ([2]; ODA 10^-4 M (18.4 ppm), rep 2, control 11.6): 30.5%
- % Elongation of upper stipes ([2]; ODA 10^-4 M (18.4 ppm), rep 3, control 17.1): 34.2%
- % Elongation of upper stipes, Mean ([2]; ODA 10^-5 M (1.84 ppm)): 27.7%
- % Elongation of upper stipes ([2]; ODA 10^-5 M (1.84 ppm), rep 1, control 14.5): 30.7%
- % Elongation of upper stipes ([2]; ODA 10^-5 M (1.84 ppm), rep 2, control 11.6): 25.0%
- % Elongation of upper stipes ([2]; ODA 10^-5 M (1.84 ppm), rep 3, control 17.1): 27.4%
- % Elongation of upper stipes, Mean ([2]; ODA 10^-6 M (0.184 ppm)): 29.5%
- % Elongation of upper stipes ([2]; ODA 10^-6 M (0.184 ppm), rep 1, control 14.5): 27.5%
- % Elongation of upper stipes ([2]; ODA 10^-6 M (0.184 ppm), rep 2, control 11.6): 24.7%
- % Elongation of upper stipes ([2]; ODA 10^-6 M (0.184 ppm), rep 3, control 17.1): 36.2%
- % Elongation of upper stipes, Mean ([2]; ODA 10^-7 M (0.0184 ppm)): 30.9%
- % Elongation of upper stipes ([2]; ODA 10^-7 M (0.0184 ppm), rep 1, control 14.5): 27.3%
- % Elongation of upper stipes ([2]; ODA 10^-7 M (0.0184 ppm), rep 2, control 11.6): 38.3%
- % Elongation of upper stipes ([2]; ODA 10^-7 M (0.0184 ppm), rep 3, control 17.1): 27.2%
- % Elongation of upper stipes, Mean ([2]; ODA 10^-8 M (0.00184 ppm)): 30.5%
- % Elongation of upper stipes ([2]; ODA 10^-8 M (0.00184 ppm), rep 1, control 14.5): 23.7%
- % Elongation of upper stipes ([2]; ODA 10^-8 M (0.00184 ppm), rep 2, control 11.6): 32.7%
- % Elongation of upper stipes ([2]; ODA 10^-8 M (0.00184 ppm), rep 3, control 17.1): 35.1%
- effect on upper stipe elongation (in words) ([2]; all levels, only when lower portions present): significant effect
